Read-outs that look alike come from different tables or passages of the source. Bounds are passed on as bounds.

Series [1] deals with T1, CsHCS2 (Cannabis sativa, UniProt A0A7J6I5X8). Nature of the series: Carboxylic acid substrate range, luciferin/luciferase measurement of unconsumed ATP. It is filed as biochemical. The conditions noted are these: CsHCS2, 500 μM carboxylic acid, 50 μM ATP, 3 h at 29° C., FIG. 3B. The method, then:
(§1) To test the range of carboxylic acids that CsHCS1 and CsHCS2 can activate, enzyme assays were performed with a broad range of carboxylic acids and limiting ATP. The assay conditions used were similar to Schneider K et al. (2005). A new type of peroxisomal acyl-coenzyme A synthetase from Arabidopsis thaliana has the catalytic capacity to activate biosynthetic precursors of jasmonic acid. The Journal of Biological Chemistry, 280:13962-72. […] All carboxylic acid substrates were dissolved in 2% v/v Triton™ X-100, leading to a final concentration 0.05% Triton X-100 in the assay. After reacting for 3 h at 29° C., 10 μL aliquots of the reactions were transferred to 96-well plates for a luciferin/luciferase based measurement of unconsumed ATP. The plates were analyzed with a 1420 Multilabel counter (PerkinElmer). To each well, 90 μL of a solution containing 100 mM Tris pH 7.8, 1 mM MgCl2, 2.3 μg luciferin, and 0.5 μg of luciferase was injected, and after shaking for 2 seconds the luminescence was measured for 15 seconds without a filter in place. Lower readings, compared to the reactions with no carboxylic acid substrate, indicate a higher amount of enzymatic activity and therefore substrate utilization. The results are shown in FIG. 3, wherein error bars represent the percent error of the ratio, n=3.

The target of series [2] is T1, CsHCS2. Nature of the series: Kinetic properties, separate experiment (Table 5). It is filed as biochemical.
The target of series [3] is T2, CsHCS1 (Cannabis sativa, UniProt H9A1V3, DEL715-715). Briefly: biochemical.
For series [4], the system named is CCCCCC(=O)O. Nature of the series: purified protein, by the assay type. The class given is biochemical, Cannabis sativa. The conditions noted are these: other: CsHCS1, substrate hexanoate; pH 9.0; 40.0 °C.
The subject of series [5] is CC(C)(COP(=O)(O)OP(=O)(O)OC[C@H]1O[C@@H](n2cnc3c(N)ncnc32)[C@H](O)[C@@H]1OP(=O)(O)O)[C@@H](O)C(=O)NCCC(=O)NCCS. Briefly: purified protein, by the assay type.
Series [6] deals with CCCCCC(=O)O. Nature of the series: purified protein, by the assay type. The conditions noted are these: other: CsHCS1, Table 5.
The next series concerns CCCCCCCCCC(=O)O. Nature of the series: purified protein, by the assay type. The conditions noted are these: other: CsHCS1, Table 5.
The target in series [7] is T1, CsHCS2.
Experimental: The reactions were incubated for 10 min at 40° C., terminated with 2 μL of 1 N HCl and stored on ice until analysis.
The reaction mixtures were diluted 1:100 with water and subsequently separated using a Waters Acquity UPLC system fitted with an Acquity UPLC BEH C18 column (1.7 μm particle size, 2.1×50 mm column), and analyzed by MS/MS using a Micromass Quattro Ultima triple-quadrupole mass spectrometer. The solvent system used was buffer A: 5 mM TEA and 3 mM acetic acid in water, and buffer B: 5 mM TEA and 3 mM acetic acid in 95:5 methanol:water. The mass spectrometer settings were: ESI positive mode, collision energy 27 V, cone 135 V, scanning for 866>359 transitions.
Series [8] deals with T2, CsHCS1. The conditions noted are these: CsHCS1, Table 5.
Series [9] concerns the target T2, CsHCS1. Briefly: Carboxylic acid substrate range, luciferin/luciferase measurement of unconsumed ATP. The class given is biochemical. Details: His8 (pHIS8/GW vector) (N); made in house; host or cells: E. coli Rosetta 2. To be noted: CsHCS1, 500 μM carboxylic acid, 50 μM ATP, 3 h at 29° C., FIG. 3A. The method, then:
as §1

In series [10] the test system is olivetolic acid synthesis. Nature of the series: Coupled enzymatic assay for olivetolic acid synthesis (CsHCS2, MCS, olivetol synthase/PKS, OAS). The conditions noted are these: 0.3 μg CsHCS2, 4 mM hexanoate, room temperature, 16 h, FIG. 4. It is filed as biochemical, Cannabis sativa. How it is done:
Eluted compounds were detected by absorbance at 263 nm and identified both by having the same retention times as isolated standards, and by their mass using a single quadrapole mass detector. […] HTAL=hexanoyltriacetic lactone, PDAL=pentyldiacetic lactone, OA=olivetolic acid, OL=olivetol.
The reaction was incubated at room temperature for 16 h, acidified and extracted in ethyl acetate. The polar fraction was recovered, evaporated to dryness and resuspended in 50 μL of methanol. An aliquot (5 μL) was analyzed by LCMS, and products were identified by their retention times and masses (see FIG. 4).

Series [11] concerns the target T2, CsHCS1. Nature of the series: Hexanoyl-CoA synthetase activity (LC-MS/MS). It is filed as biochemical. The arrangement: His8 (pHIS8/GW vector) (N); made in house; host or cells: E. coli Rosetta 2.

T1 sequence (A0A7J6I5X8 entry or part of it): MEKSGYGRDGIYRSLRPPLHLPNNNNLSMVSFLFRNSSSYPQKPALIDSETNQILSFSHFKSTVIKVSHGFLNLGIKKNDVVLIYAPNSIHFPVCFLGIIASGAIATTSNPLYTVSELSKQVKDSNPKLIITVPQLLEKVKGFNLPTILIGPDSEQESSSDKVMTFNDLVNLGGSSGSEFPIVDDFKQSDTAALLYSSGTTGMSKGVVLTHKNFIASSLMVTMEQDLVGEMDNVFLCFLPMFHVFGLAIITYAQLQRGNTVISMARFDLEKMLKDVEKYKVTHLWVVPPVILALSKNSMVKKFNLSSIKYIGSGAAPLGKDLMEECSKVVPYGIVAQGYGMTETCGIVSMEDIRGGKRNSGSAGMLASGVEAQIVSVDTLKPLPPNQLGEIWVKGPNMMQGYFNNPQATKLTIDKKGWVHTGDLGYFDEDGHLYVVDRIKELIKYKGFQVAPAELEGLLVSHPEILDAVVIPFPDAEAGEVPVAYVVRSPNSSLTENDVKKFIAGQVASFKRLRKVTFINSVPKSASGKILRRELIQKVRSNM

For `O=C(O)/C=C/c1ccccc1` [cinnamate], the utilization as substrate entry at CsHCS2 [1] was “able to utilize”.

As for `CC(C)(COP(=O)(O)OP(=O)(O)OC[C@H]1O[C@@H](n2cnc3c(N)ncnc32)[C@H](O)[C@@H]1OP(=O)(O)O)[C@@H](O)C(=O)NCCC(=O)NCCS` [CoA, coenzyme A], the “inhibition of CsHCS2” value at CsHCS2 [2] is reported as “did not inhibit”. Besides, the affinity at CsHCS1 [3] corresponds to a Ki of 5100 ± 1800 µM.

As to CsHCS1 (Cannabis sativa; DEL715-715), the Km came to 6.1 ± 1.0 mM in the series with CCCCCC(=O)O [4]; 0.26 ± 0.05 μM μM in [5] (other: CsHCS1, Table 5); 3.7 ± 0.7 mM mM with CCCCCC(=O)O [6]; 1.7 ± 0.2 mM mM in the series with CCCCCCCCCC(=O)O. Further, the Vmax with CCCCCC(=O)O [4] was found to be 15.6±1.7 pKat. Besides, the kcat (as a rule, the maximal rate divided by the concentration of active sites) in the series with CCCCCC(=O)O [4] turned out to be 4.5 s⁻¹.

Regarding `[Mn+2]` [Mn^2+], the “activity with divalent cation” value on CsHCS2 [7] is “high”.

Take `CCCC(=O)O` [butanoate]: the Km at CsHCS2 [2] (read-out: Km) and at CsHCS1 [8] was over 10 mM each time.

With `CCCCC(=O)O` [valerate], the utilization as substrate result on CsHCS1 [9] was “to a lesser extent”.

As to “CsHCS2: Cannabis sativa hexanoyl-CoA synthetase 2, alkanoyl-CoA synthetase, SEQ ID NO: 4”, the “supply of hexanoyl-CoA for olivetolic acid synthesis” value in [10] is “capable of providing sufficient hexanoyl-CoA substrate for the synthesis of olivetolic acid”. In the series with CsHCS2 [7], this molecule returned a pH optimum of 9 and a temperature optimum of 40 °C.

Regarding `[Mg+2]` [Mg^2+], the “activity with divalent cation” value on CsHCS2 [7] is reported as “high”. Also, the “use of divalent cation” value on CsHCS1 [11] (CsHCS1, range of divalent cations tested) was “optimally used”.

For CsHCS2 (Cannabis sativa), in series [5] (other: CsHCS2, Table 5), the Km amounted to 0.16 ± 0.01 μM μM.

Turning to `[Ca+2]` [Ca^2+], the “activity with divalent cation” value on CsHCS2 [7] was “to a lesser extent”.

`CCCCCCCC(=O)O` [octanoate]: the utilization as substrate result at CsHCS1 [9] is “utilize”.

Regarding `[Co+2]` [Co^2+], the “activity with divalent cation” value on CsHCS2 [7] was “highest”.

As for `O=C(O)/C=C/c1ccc(O)cc1` [p-coumarate], on CsHCS2 [1], the utilization as substrate entry was “to a lesser extent”.

As for `CCCCCCCCCC(=O)O` [decanoate], on CsHCS2 [2], the Ki (commonly a dissociation constant, usually derived from enzyme kinetics or from competition with a known ligand) is 121 ± 47.9 µM. Moreover, the Km on CsHCS2 [2] (CsHCS2, Table 5) is 0.0161 ± 0.0058 mM.

B1: CsHCS1: Cannabis sativa hexanoyl-CoA synthetase 1, alkanoyl-CoA synthetase, SEQ ID NO: 2 (protein, listed as Cannabis sativa)
chain: MGKNYKSLDSVVASDFIALGITSEVAETLHGRLAEIVCNYGAATPQTWINIANHILSPDLPFSLHQMLFYGCYKDFGPAPPAWIPDPEKVKSTNLGALLEKRGKEFLGVKYKDPISSFSHFQEFSVRNPEVYWRTVLMDEMKISFSKDPECILRRDDINNPGGSEWLPGGYLNSAKNCLNVNSNKKLNDTMIVWRDEGNDDLPLNKLTLDQLRKRVWLVGYALEEMGLEKGCAIAIDMPMHVDAVVIYLAIVLAGYVVVSIADSFSAPEISTRLRLSKAKAIFTQDHIIRGKKRIPLYSRVVEAKSPMAIVIPCSGSNIGAELRDGDISWDYFLERAKEFKNCEFTAREQPVDAYTNILFSSGTTGEPKAIPWTQATPLKAAADGWSHLDIRKGDVIVWPTNLGWMMGPWLVYASLLNGASIALYNGSPLVSGFAKFVQDAKVTMLGVVPSIVRSWKSTNCVSGYDWSTIRCFSSSGEASNVDEYLWLMGRANYKPVIEMCGGTEIGGAFSAGSFLQAQSLSSFSSQCMGCTLYILDKNGYPMPKNKPGIGELALGPVMFGASKTLLNGNHHDVYFKGMPTLNGEVLRRHGDIFELTSNGYYHAHGRADDTMNIGGIKISSIEIERVCNEVDDRVFETTAIGVPPLGGGPEQLVIFFVLKDSNDTTIDLNQLRLSFNLGLQKKLNPLFKVTRVVPLSSLPRTATNKIMRRVLRQFSHFE
In the case of B1, in the series with CsHCS1 [11] (enzyme CsHCS1), the pH optimum was 9 and the temperature optimum stood at 40 °C.
